Test results from patent publication US20080242649A1, “New Combination 665” (priority 2007, published 2008).

Key:
Conditions in all cases: compound and its salts
[1] = biological target: T1, recombinant human α1D receptor (Homo sapiens, UniProt P25100); test: Adrenergic α1D [3H]-prazosin binding, HEK293 membranes
T1 construct: expressed in transfected cells; host or cells: HEK293 cells (membranes)
T1 sequence (P25100 1-572): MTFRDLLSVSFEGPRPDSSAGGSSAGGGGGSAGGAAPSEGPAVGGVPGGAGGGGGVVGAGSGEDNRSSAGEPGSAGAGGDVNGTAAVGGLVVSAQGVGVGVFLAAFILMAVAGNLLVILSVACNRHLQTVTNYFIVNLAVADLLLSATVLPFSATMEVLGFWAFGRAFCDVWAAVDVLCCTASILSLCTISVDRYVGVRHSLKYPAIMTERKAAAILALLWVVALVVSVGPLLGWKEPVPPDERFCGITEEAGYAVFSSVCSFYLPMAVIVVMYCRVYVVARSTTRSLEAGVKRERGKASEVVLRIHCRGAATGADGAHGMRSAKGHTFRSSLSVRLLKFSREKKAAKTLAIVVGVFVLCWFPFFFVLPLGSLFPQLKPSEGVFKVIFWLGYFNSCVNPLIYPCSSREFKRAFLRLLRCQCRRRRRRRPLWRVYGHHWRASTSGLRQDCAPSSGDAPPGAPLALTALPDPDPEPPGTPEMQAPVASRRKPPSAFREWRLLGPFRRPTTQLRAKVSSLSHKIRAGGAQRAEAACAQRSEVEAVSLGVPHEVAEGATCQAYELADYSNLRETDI
Method: Membranes were prepared from human embryonic kidney 293 (HEK293) cells expressing recombinant human α1D receptor. These were diluted in Assay Buffer (50 mM HEPES, 1 mM EDTA, 0.1% gelatin, pH 7.4) to provide a final concentration of membranes that gave a clear window between maximum and minimum specific binding.
(§1) Assays were performed in U-bottomed 96-well polypropylene plates. 10 μL [^3H]-prazosin (0.3 nM final concentration) and 10 μL of Compound A (10× final concentration) were added to each test well. For each assay plate 8 replicates were obtained for [^3H]-prazosin binding in the presence of 10 μL vehicle (10% (v/v) DMSO in Assay Buffer; defining maximum binding) or 10 μL BMY7378 (10 μM final concentration; defining non-specific binding (NSB)). Membranes were then added to achieve a final volume of 100 μL. […] Five washes with 250 μL wash buffer (50 mM HEPES, 1 mM EDTA, pH 7.4) were performed at 4° C. to remove unbound radioactivity. […] The plates were sealed (TopSeal A) and filter-bound radioactivity was measured with a scintillation counter (TopCount, Packard BioScience) using a 3-minute counting protocol.
(§2) Total specific binding (B0) was determined by subtracting the mean NSB from the mean maximum binding. […]

[2] = biological target: T2, recombinant human adrenergic beta 1 receptors (Homo sapiens, UniProt P08588); test: Adrenergic β1 [125I]-Iodocyanopindolol binding
T2 construct: purchased Euroscreen
T2 sequence (P08588 whole entry): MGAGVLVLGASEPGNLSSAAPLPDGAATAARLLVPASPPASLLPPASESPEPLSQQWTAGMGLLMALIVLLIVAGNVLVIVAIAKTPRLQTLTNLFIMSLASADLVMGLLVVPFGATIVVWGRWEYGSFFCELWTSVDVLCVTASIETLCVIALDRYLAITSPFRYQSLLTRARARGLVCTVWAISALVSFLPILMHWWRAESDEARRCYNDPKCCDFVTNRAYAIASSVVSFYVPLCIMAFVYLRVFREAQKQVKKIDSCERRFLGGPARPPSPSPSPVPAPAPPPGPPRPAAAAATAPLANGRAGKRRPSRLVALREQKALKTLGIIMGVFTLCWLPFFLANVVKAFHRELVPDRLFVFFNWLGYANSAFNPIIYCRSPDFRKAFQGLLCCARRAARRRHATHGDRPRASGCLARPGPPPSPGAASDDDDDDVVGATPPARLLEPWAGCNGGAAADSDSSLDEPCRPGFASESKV
Method: Membranes containing recombinant human adrenergic beta 1 receptors were obtained from Euroscreen. These were diluted in Assay Buffer (50 mM HEPES, 1 mM EDTA, 120 mM NaCl, 0.1% gelatin, pH 7.4) to provide a final concentration of membranes that gave a clear window between maximum and minimum specific binding.
as §1, with “PL [1251]-Iodocyanopindolol (0.036” for “μL [^3H]-prazosin (0.3”, “[^125]-Iodocyanopindolol” for “[^3H]-prazosin”, “Propranolol” for “BMY7378”, “EDTA, 120 mM NaCl,” for “EDTA,”
as §2

[3] = biological target: T3, recombinant human Dopamine Subtype D2s receptors (Homo sapiens, UniProt P14416); test: Dopamine D2 [3H]-spiperone binding
T3 construct: purchased Perkin Elmer
T3 sequence (P14416 1-414 isoform P14416-2): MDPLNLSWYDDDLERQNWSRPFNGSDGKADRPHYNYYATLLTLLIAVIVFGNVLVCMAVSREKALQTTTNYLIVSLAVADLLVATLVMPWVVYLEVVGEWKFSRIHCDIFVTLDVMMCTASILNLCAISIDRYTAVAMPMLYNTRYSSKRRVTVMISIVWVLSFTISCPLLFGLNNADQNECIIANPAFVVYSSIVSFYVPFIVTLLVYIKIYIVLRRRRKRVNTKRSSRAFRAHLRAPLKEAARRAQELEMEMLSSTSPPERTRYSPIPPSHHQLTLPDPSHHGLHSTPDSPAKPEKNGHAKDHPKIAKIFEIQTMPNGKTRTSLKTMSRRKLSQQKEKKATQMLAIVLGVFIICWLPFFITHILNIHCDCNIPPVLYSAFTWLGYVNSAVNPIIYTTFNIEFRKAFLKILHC
Method: Membranes containing recombinant human Dopamine Subtype D2s receptors were obtained from Perkin Elmer. These were diluted in Assay Buffer (50 mM HEPES, 1 mM EDTA, 120 mM NaCl, 0.1% gelatin, pH 7.4) to provide a final concentration of membranes that gave a clear window between maximum and minimum specific binding.
Assays were performed in U-bottomed 96-well polypropylene plates. 30 PL [^3H]-spiperone (0.16 nM final concentration) and 30 μL of Compound A (10× final concentration) were added to each test well. For each assay plate 8 replicates were obtained for [^3H]-spiperone binding in the presence of 30 PL vehicle (10% (v/v) DMSO in Assay Buffer; defining maximum binding) or 30 μL Haloperidol (10 PM final concentration; defining non-specific binding (NSB)). Membranes were then added to achieve a final volume of 300 μL. […] Five washes with 250 μL wash buffer (50 mM HEPES, 1 mM EDTA, 120 mM NaCl, pH 7.4) were performed at 4° C. to remove unbound radioactivity. […] The plates were sealed (TopSeal A) and filter-bound radioactivity was measured with a scintillation counter (TopCount, Packard BioScience) using a 3-minute counting protocol.
as §2

CCN(CC)CCN(CCNCCc1ccc(O)c2[nH]c(=O)sc12)C(=O)CCOCCc1cccc2ccccc12 [N-[2-(Diethylamino)ethyl]-N-(2-{[2-(4-hydroxy-2-oxo-2,3-dihydro-1,3-benzothiazol-7-yl)ethyl]amino}ethyl)-3-[2-(1-naphthyl)ethoxy]propanamide]
≥ 10 fold: selectivity of β2 adrenoceptor agonism over adrenergic α1D [1] | selectivity of β2 adrenoceptor agonism over adrenergic β1 [2] | selectivity of β2 adrenoceptor agonism over dopamine D2 [3]
